Results as given in patent publication US8178522B2, “Thiazoles” (Hoffmann-La Roche Inc., priority 2009, dated 2012).

Biological target: T1, GABA A α5 (α5β3γ2) (Homo sapiens, UniProt P18507+P31644)
T1 construct: expressed in transfected cells; host or cells: HEK293, transiently transfected; membrane preparation
Assay: [3H]flumazenil competition binding, human GABA A α5 receptor
Details: human receptor α5β3γ2 transiently transfected in HEK293 cells; competition for [3H]flumazenil 0.5 nM; 1 hour at 4° C.; means of two determinations; read-out: hKi GABA A α5
Method: Membrane Preparation and Binding Assay
The affinity of compounds at GABA A receptor subtypes was measured by competition for [3H]flumazenil (85 Ci/mmol; Roche) binding to HEK293 cells expressing rat (stably transfected) or human (transiently transfected) receptors of compositional α1β3γ2, α2β3γ2, α3β3γ2 and α5β3γ2.
Cell pellets were suspended in Krebs-tris buffer (4.8 mM KCl, 1.2 mM CaCl2, 1.2 mM MgCl2, 120 mM NaCl, 15 mM Tris; pH 7.5; binding assay buffer), homogenized by polytron for ca. 20 sec on ice and centrifuged for 60 min at 4° C. (50000 g; Sorvall, rotor: SM24=20000 rpm). The cell pellets were re-suspended in Krebs-tris buffer and homogenized by polytron for ca. 15 sec on ice. Protein was measured (Bradford method, Bio-Rad) and aliquots of 1 mL were prepared and stored at −80° C.
Assays were incubated to equilibrium for 1 hour at 4° C. and harvested onto GF/C uni-filters (Packard) by filtration using a Packard harvester and washing with ice-cold wash buffer (50 mM Tris; pH 7.5). After drying, filter-retained radioactivity was detected by liquid scintillation counting. Ki values were calculated using Excel-Fit (Microsoft) and are the means of two determinations.

Row | Ki [µM] | SMILES
1 | 0.0003 | Cc1nc(/C=C/c2c(-c3ccccc3)noc2C)sc1C(=O)NC1CCOC1 (stereo not drawn) [Example 69, 4-Methyl-2-[(E)-2-(5-methyl-3-phenyl-isoxazol-4-yl)-vinyl]-thiazole-5-carboxylic acid (tetrahydro-furan-3-yl)-amide]
2 | 0.0011 | CCCCc1noc(C)c1/C=C/c1nc(C)c(C(=O)N2CC3(COC3)C2)s1 [Example 123, {2-[(E)-2-(3-Butyl-5-methyl-isoxazol-4-yl)-vinyl]-4-methyl-thiazol-5-yl}-(2-oxa-6-aza-spiro[3.3]hept-6-yl)-methanone]
3 | 0.0275 | Cc1onc(-c2ccccc2)c1CNc1ncc(C(=O)NC2CCOCC2)s1 [Example 136, 2-[(5-Methyl-3-phenyl-isoxazol-4-ylmethyl)-amino]-thiazole-5-carboxylic acid (tetra-hydro-pyran-4-yl)-amide]
4 | 0.0261 | Cc1onc(-c2ccccn2)c1CCc1ncc(C(=O)NC2CC2)s1 [Example 23, 2-[2-(5-Methyl-3-pyridin-2-yl-isoxazol-4-yl)-ethyl]-thiazole-5-carboxylic acid cyclo-propylamide]
5 | 0.0288 | CCCCc1noc(C)c1/C=C\c1nc(C)c(C(=O)NCCO)s1 [Example 101, 2-[(Z)-2-(3-Butyl-5-methyl-isoxazol-4-yl)-vinyl]-4-methyl-thiazole-5-carboxylic acid (2-hydroxy-ethyl)-amide]
6 | 0.0168 | CCOC(=O)c1cnc(OCc2c(-c3ccccc3)noc2C)s1 [Example 126, 2-(5-Methyl-3-phenyl-isoxazol-4-ylmethoxy)-thiazole-5-carboxylic acid ethyl ester]
7 | 0.0308 | CCCCc1noc(C)c1/C=C/c1nc(C)c(C(=O)N2CCC2)s1 [Example 110, Azetidin-1-yl-{2-[(E)-2-(3-butyl-5-methyl-isoxazol-4-yl)-vinyl]-4-methyl-thiazol-5-yl}-methanone]
8 | 0.0047 | CCCCc1noc(C)c1/C=C/c1nc(C)c(C(=O)NC2CCC2)s1 [Example 115, 2-[(E)-2-(3-Butyl-5-methyl-isoxazol-4-yl)-vinyl]-4-methyl-thiazole-5-carboxylic acid cyclobutylamide]
9 | 0.0042 | Cc1nc(CCc2c(-c3ccccn3)noc2C)sc1C(=O)NCC(F)(F)F [Example 13, 4-Methyl-2-[2-(5-methyl-3-pyridin-2-yl-isoxazol-4-yl)-ethyl]-thiazole-5-carboxylic acid (2,2,2-trifluoro-ethyl)-amide]
10 | 0.0044 | CCCCc1noc(C)c1/C=C/c1nc(C)c(C(=O)NCC2CC2)s1 [Example 116, 2-[(E)-2-(3-Butyl-5-methyl-isoxazol-4-yl)-vinyl]-4-methyl-thiazole-5-carboxylic acid cyclopropylmethyl-amide]
11 | 0.0324 | Cc1onc(-c2ccccn2)c1CCc1ncc(C(=O)NCCO)s1 [Example 29, 2-[2-(5-Methyl-3-pyridin-2-yl-isoxazol-4-yl)-ethyl]-thiazole-5-carboxylic acid (2-hydroxy-ethyl)-amide]
12 | 0.0042 | Cc1onc(-c2ccccc2)c1COc1ncc(C(=O)NC(C)CO)s1 (stereo not drawn) [Example 129, 2-(5-Methyl-3-phenyl-isoxazol-4-ylmethoxy)-thiazole-5-carboxylic acid (2-hydroxy-1-methyl-ethyl)-amide]
13 | 0.0312 | Cc1onc(-c2ccc(F)cn2)c1/C=C/c1ncc(C(=O)N2CCOCC2)s1 [Example 86, (2-{(E)-2-[3-(5-Fluoro-pyridin-2-yl)-5-methyl-isoxazol-4-yl]-vinyl}-thiazol-5-yl)-morpholin-4-yl-methanone]
14 | 0.0022 | CCCCc1noc(C)c1/C=C/c1nc(C)c(C(=O)NCCO)s1 [Example 95, 2-[(E)-2-(3-Butyl-5-methyl-isoxazol-4-yl)-vinyl]-4-methyl-thiazole-5-carboxylic acid (2-hydroxy-ethyl)-amide]
15 | 0.0026 | CCCCc1noc(C)c1/C=C/c1nc(C)c(C(=O)N[C@H](C)C(F)(F)F)s1 [Example 107, 2-[(E)-2-(3-Butyl-5-methyl-isoxazol-4-yl)-vinyl]-4-methyl-thiazole-5-carboxylic acid ((R)-2,2,2-trifluoro-1-methyl-ethyl)-amide]
16 | 0.0578 | CCCCc1noc(C)c1/C=C/c1nc(C)c(C(=O)N2CCOCC2)s1 [Example 120, {2-[(E)-2-(3-Butyl-5-methyl-isoxazol-4-yl)-vinyl]-4-methyl-thiazol-5-yl}-morpholin-4-yl-methanone]
17 | 0.0079 | Cc1nc(CCc2c(-c3ccccc3)noc2C)sc1C(=O)NC(C)CO (racemic) [Example 3, Rac-4-Methyl-2-[2-(5-methyl-3-phenyl-isoxazol-4-yl)-ethyl]-thiazole-5-carboxylic acid (2-hydroxy-1-methyl-ethyl)-amide]
18 | 0.0055 | Cc1onc(-c2ccc(F)cn2)c1/C=C/c1ncc(C(N)=O)s1 [Example 81, 2-{(E)-2-[3-(5-Fluoro-pyridin-2-yl)-5-methyl-isoxazol-4-yl]-vinyl}-thiazole-5-carboxylic acid amide]
19 | 0.0181 | Cc1onc(-c2ccccn2)c1CCc1ncc(C(=O)NC(C)C)s1 [Example 22, 2-[2-(5-Methyl-3-pyridin-2-yl-isoxazol-4-yl)-ethyl]-thiazole-5-carboxylic acid isopropylamide]
20 | 0.0509 | CCCCc1noc(C)c1CCc1ncc(C(=O)NC(C)CO)s1 (stereo not drawn) [Example 58, 2-[2-(3-Butyl-5-methyl-isoxazol-4-yl)-ethyl]-thiazole-5-carboxylic acid (2-hydroxy-1-methyl-ethyl)-amide]
21 | 0.0018 | Cc1onc(-c2ccccc2)c1COc1ncc(C(=O)NC2CCOCC2)s1 [Example 128, 2-(5-Methyl-3-phenyl-isoxazol-4-ylmethoxy)-thiazole-5-carboxylic acid (tetrahydro-pyran-4-yl)-amide]
22 | 0.016 | Cc1nc(CCc2c(-c3ccc(F)cn3)noc2C)sc1C(=O)NCC1CC1 [Example 34, 2-{2-[3-(5-Fluoro-pyridin-2-yl)-5-methyl-isoxazol-4-yl]-ethyl}-4-methyl-thiazole-5-carboxylic acid cyclopropylmethyl-amide]
23 | 0.0022 | Cc1onc(-c2ccccc2)c1COc1ncc(C(=O)NC(C)C)s1 [Example 127, 2-(5-Methyl-3-phenyl-isoxazol-4-ylmethoxy)-thiazole-5-carboxylic acid isoprop-ylamide]
24 | 0.0186 | Cc1onc(-c2ccc(F)cn2)c1CCc1ncc(C(=O)NCC2CC2)s1 [Example 43, 2-{2-[3-(5-Fluoro-pyridin-2-yl)-5-methyl-isoxazol-4-yl]-ethyl}-thiazole-5-carboxylic acid cyclopropylmethyl-amide]
25 | 0.0337 | Cc1nc(CCc2c(-c3ccccc3)noc2C)sc1C(N)=O [Example 6, 4-Methyl-2-[2-(5-methyl-3-phenyl-isoxazol-4-yl)-ethyl]thiazole-5-carboxylic acid amide]
26 | 0.0035 | Cc1onc(-c2ccc(F)cn2)c1/C=C/c1ncc(C(=O)NC2CCOCC2)s1 [Example 77, 2-{(E)-2-[3-(5-Fluoro-pyridin-2-yl)-5-methyl-isoxazol-4-yl]-vinyl}-thiazole-5-carboxylic acid (tetrahydro-pyran-4-yl)-amide]
27 | 0.0111 | CCCCc1noc(C)c1CCc1nc(C)c(C(=O)NC2CCOCC2)s1 [Example 51, 2-[2-(3-Butyl-5-methyl-isoxazol-4-yl)-ethyl]-4-methyl-thiazole-5-carboxylic acid (tetra-hydro-pyran-4-yl)-amide]
